Assay results taken from patent publication US4565811A, “Sodium salt of ursodeoxycholic sulphate” (Istituto Biologico Chemioterapico "ABC" S.p.A., priority 1983, dated 1986).
Like-named read-outs stand apart in the source and are kept apart here.

Legend:
[1] = tested on: hyperdislipidemia caused by Triton WR-1339 in the rat; experiment: Action on the hyperdislipidemia caused by Triton WR-1339 in the rat; assay type: in vivo, Albinus rats (Witar); settings: for Alfa-Lipoproteins: Increase towards Group 2 / Beta-Lipoproteins: Inhibition towards Group 2 / Beta/alfa ratio: Inhibition towards Group 2 / Total cholesterol: Inhibition in comparison with Group 2 / Total lipids: Inhibition in comparison with Group 2 / Triglycerids: Inhibition in comparison with Group 2: vs Group 2 (Triton control)
Protocol: Action on the hyperdislipidemia caused by Triton WR-1339 in the rat
Albinus rats (Witar) of 300-320 g each, having been fed only with water "ad libitum" for 12 hours, were treated with US and UA, by oral route, 4 hours before and 15 hours after the administration intraperitenously of Triton WR-1339 at the dosage of 300 mg/kg in 10 ml/kg of physiologic solution at 0.9%.
US and UA dosages were 25, 50 and 100 mg/kg respectively and the rats were divided in the following groups of 10 animals each.
Group 1: Controls treated with 10 ml/kg of physiological solution at 0.9% orally.
Group 2: Controls treated with 300 mg/kg of Triton WR-1339 i.p. and 10 ml/kg of carboxy methyl cellulose (CMC) at 0.5%.
Group 3, 4 and 5: UA at 25, 50 and 100 mg/kg respectively suspended in 10 ml/kg of CMC at 0.5%.
Groups 6, 7 and 8: US at 25, 50 and 100 mg/kg respectively dissolved in 10 ml/kg of physiologic solution.
The following Tables 1 and 2 list the results of blood-tests from addominal aorta of rats sacrificed 5 hours after the last treatment: […]

[2] = known compounds; cited from earlier work
[3] = cited from earlier work
[4] = Solubility in water / acidity; assay type: physicochemical
[5] = 25 mg/kg os, Triton WR-1339 rat
[6] = 50 mg/kg os, Triton WR-1339 rat
[7] = 100 mg/kg os, Triton WR-1339 rat

Q: What does the source list for `C[C@H](CCC(=O)O)[C@H]1CC[C@H]2[C@@H]3[C@@H](O)C[C@@H]4C[C@H](O)CC[C@]4(C)[C@H]3CC[C@]12C` [UA, ursodeoxycholic acid, reference compound]?
A: Alfa-Lipoproteins Average ± SD [1, 5]: 27,6 ± 9,8 mg/100 ml serum; Beta-Lipoproteins Average ± SD [1, 5]: 221,17 ± 38,4 mg/100 ml serum; Beta/alfa ratio Average ± SD [1, 5]: 8,95 ± 3,5 mg/100 ml serum; Total cholesterol Average ± SD [1, 5]: 244,8 ± 34,5 mg/100 ml serum; Total lipids Average ± SD [1, 5]: 3011,4 ± 513,6 mg/100 ml serum; Triglycerids Average ± SD [1, 5]: 1167,14 ± 180,5 mg/100 ml serum; Alfa-Lipoproteins: Increase towards Group 2 ([1]; 25 mg/kg os): +23,2%; Beta-Lipoproteins: Inhibition towards Group 2 ([1]; 25 mg/kg os): -19,1%; Beta/alfa ratio: Inhibition towards Group 2 ([1]; 25 mg/kg os): -28,2%; Total cholesterol: Inhibition in comparison with Group 2 ([1]; 25 mg/kg os): -15,9%; Total lipids: Inhibition in comparison with Group 2 ([1]; 25 mg/kg os): -21,1%; Triglycerids: Inhibition in comparison with Group 2 ([1]; 25 mg/kg os): -11,0%; Alfa-Lipoproteins Average ± SD [1, 6]: 41,7 ± 11,3 mg/100 ml serum; Beta-Lipoproteins Average ± SD [1, 6]: 133,7 ± 60,4 mg/100 ml serum; Beta/alfa ratio Average ± SD [1, 6]: 3,88 ± 1,73 mg/100 ml serum; Total cholesterol Average ± SD [1, 6]: 175,47 ± 54,26 mg/100 ml serum; Total lipids Average ± SD [1, 6]: 2517,3 ± 557,6 mg/100 ml serum; Triglycerids Average ± SD [1, 6]: 893,6 ± 298,1 mg/100 ml serum; Alfa-Lipoproteins: Increase towards Group 2 ([1]; 50 mg/kg os): +86,1%; Beta-Lipoproteins: Inhibition towards Group 2 ([1]; 50 mg/kg os): -51,2%; Beta/alfa ratio: Inhibition towards Group 2 ([1]; 50 mg/kg os): -68,8%; Total cholesterol: Inhibition in comparison with Group 2 ([1]; 50 mg/kg os): -40,7%; Total lipids: Inhibition in comparison with Group 2 ([1]; 50 mg/kg os): -34,1%; Triglycerids: Inhibition in comparison with Group 2 ([1]; 50 mg/kg os): -31,9%; Alfa-Lipoproteins Average ± SD [1, 7]: 39,64 ± 11,4 mg/100 ml serum; Beta-Lipoproteins Average ± SD [1, 7]: 115,5 ± 58,7 mg/100 ml serum; Beta/alfa ratio Average ± SD [1, 7]: 3,41 ± 2,29 mg/100 ml serum; Total cholesterol Average ± SD [1, 7]: 155,2 ± 50,3 mg/100 ml serum; Total lipids Average ± SD [1, 7]: 2241,14 ± 517,4 mg/100 ml serum; Triglycerids Average ± SD [1, 7]: 628,8 ± 223,0 mg/100 ml serum; Alfa-Lipoproteins: Increase towards Group 2 ([1]; 100 mg/kg os): +76,8%; Beta/alfa ratio: Inhibition towards Group 2 ([1]; 100 mg/kg os): -72,6%; Total cholesterol: Inhibition in comparison with Group 2 ([1]; 100 mg/kg os): -47,6%; Total lipids: Inhibition in comparison with Group 2 ([1]; 100 mg/kg os): -41,3%; Triglycerids: Inhibition in comparison with Group 2 ([1]; 100 mg/kg os): -52,1%; Dose dependence of activity inhibiting the hyperdislipidemia ([1]; 25, 50 and 100 mg/kg oral, Triton WR-1339 rat): depends on the dosage; Solubility in water [2]: pratically insoluble in water; Effect on cholesterol stones ([3]; bile saturated with cholesterol): prevents the formation of cholesterol stones; Dissolution of radiotransparent stones ([3]; under suitable conditions): able to dissolve under suitable conditions the radiotransparent stones

Q: Which Acidity ([4]; free acid) does the source give for `CC(CCC(=O)O)C1CCC2C3C(OS(=O)(=O)O)CC4CC(OS(=O)(=O)O)CCC4(C)C3CCC12C` (stereo not drawn) [ursodeoxycholic O-sulphate] here?
A: very high acidity

Q: What about the Solubility in water [4] of the same molecule?
A: very soluble in water

Q: What about the Solubility in water ([4]; listed as ursosulphate acid) of the same molecule?
A: very soluble in water with acid reaction
